Counter-ions that a name gives are not always drawn.
The compounds below were run against T1, human TRPC6 (Homo sapiens, UniProt Q9Y210) (assay: TRPC6 calcium flux assay (FLIPR, OAG-stimulated calcium influx)). Details: HEK293 cells stably transfected with human TRPC6, read-out: hTRPC6 Potency.
T1 construct: expressed in transfected cells
T1 sequence (Q9Y210 1-931): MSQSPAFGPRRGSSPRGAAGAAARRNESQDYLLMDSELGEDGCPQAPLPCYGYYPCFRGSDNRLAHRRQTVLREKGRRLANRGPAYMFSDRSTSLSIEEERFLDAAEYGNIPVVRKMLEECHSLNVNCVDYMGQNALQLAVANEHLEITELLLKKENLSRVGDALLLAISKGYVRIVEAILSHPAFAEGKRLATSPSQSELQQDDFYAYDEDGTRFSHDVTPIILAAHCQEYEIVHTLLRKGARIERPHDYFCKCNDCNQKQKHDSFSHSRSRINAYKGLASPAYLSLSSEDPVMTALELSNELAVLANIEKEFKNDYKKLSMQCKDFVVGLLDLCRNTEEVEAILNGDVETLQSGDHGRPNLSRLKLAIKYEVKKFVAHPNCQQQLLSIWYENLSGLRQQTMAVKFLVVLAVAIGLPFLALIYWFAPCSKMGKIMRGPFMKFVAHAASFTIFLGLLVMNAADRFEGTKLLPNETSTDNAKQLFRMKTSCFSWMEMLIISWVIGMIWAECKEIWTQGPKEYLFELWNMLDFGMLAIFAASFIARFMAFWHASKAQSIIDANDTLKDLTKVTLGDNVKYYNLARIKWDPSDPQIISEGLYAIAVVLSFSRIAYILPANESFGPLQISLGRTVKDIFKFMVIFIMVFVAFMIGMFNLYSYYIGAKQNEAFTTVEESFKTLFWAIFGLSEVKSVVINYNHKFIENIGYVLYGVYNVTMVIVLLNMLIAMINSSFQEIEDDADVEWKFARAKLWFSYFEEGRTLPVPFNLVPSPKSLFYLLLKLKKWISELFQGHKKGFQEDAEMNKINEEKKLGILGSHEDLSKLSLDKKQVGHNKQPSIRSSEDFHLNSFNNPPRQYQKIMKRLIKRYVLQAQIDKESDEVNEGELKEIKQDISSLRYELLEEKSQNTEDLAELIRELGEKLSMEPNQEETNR
Type: cell-based
How it was run: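 HEK293 cells stably expressing human TRPC6, loaded with calcium dye 90–120 min at RT, then given compound for 25 min before OAG (50 uM final, 0.5% DMSO) in HEPES buffer pH 7.2 with 2 mM CaCl2. Background-subtracted FLIPR peak over 180 s normalized to OAG vs buffer; IC50 from dose plot.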
For `N#Cc1ccc(Cn2c(N3CCC(F)(F)[C@H](N)C3)nc3ccc(F)cc32)nc1` [Example 88, (R)-6-((2-(3-amino-4,4-difluoropiperidin-1-yl)-6-fluoro-1H-benzo[d]imidazol-1-yl)methyl)nicotinonitrile], the IC50 was 0.643 nM. `N[C@@H]1CN(c2nc3cc(F)c(F)cc3n2CC(=O)N2CCC3CC32)CC[C@H]1F` (mixture of isomers) [Example 609, 2-(2-((3R,4R)-3-amino-4-fluoropiperidin-1-yl)-5,6-difluoro-1H-benzo[d]imidazol-1-yl)-1-(2-azabicyclo[3.1.0]hexan-2-yl)ethanone] gave an IC50 of 20.3 nM. `N[C@@H]1CN(c2nc3cc(F)cc(F)c3n2Cc2nnc(C(F)F)s2)CC[C@H]1F` [Example 598, (3R,4R)-1-(1-((5-(difluoromethyl)-1,3,4-thiadiazol-2-yl)methyl)-5,7-difluoro-1H-benzo[d]imidazol-2-yl)-4-fluoropiperidin-3-amine] was tested, and the IC50 was greater than 3750 nM. For `N#Cc1ccc(Cn2c(N3CCC(F)(F)[C@H](N)C3)nc3ccc(C#N)cc32)cc1` [Example 160, 2-((3R)-3-amino-4,4-difluoro-1-piperidinyl)-1-(4-cyanobenzyl)-1H-benzimidazole-6-carbonitrile], the IC50 was 14.2 nM. `CS(=O)(=O)c1ccc(Cn2c(N3CC[C@@H](F)[C@H](N)C3)nc3cc(F)cc(F)c32)nc1` [Example 595, (3R,4R)-1-(5,7-difluoro-1-((5-(methylsulfonyl)pyridin-2-yl)methyl)-1H-benzo[d]imidazol-2-yl)-4-fluoropiperidin-3-amine] showed an IC50 greater than 3750 nM. Work on `N[C@@H]1CN(c2nc3cc(F)c(F)cc3n2Cc2ccc(-n3cncn3)cc2)CC[C@H]1F` [Example 339, (3R,4R)-1-(5,6-difluoro-1-(4-(1H-1,2,4-triazol-1-yl)benzyl)-1H-benzimidazol-2-yl)-4-fluoro-3-piperidinamine] yielded an IC50 of 3.23 nM. `Cc1cc2nc(N3CC[C@@H](F)[C@H](N)C3)n(Cc3ccc(C#N)cn3)c2cc1F` [Example 114, 6-((2-((3R,4R)-3-amino-4-fluoro-1-piperidinyl)-6-fluoro-5-methyl-1H-benzimidazol-1-yl)methyl)-3-pyridinecarbonitrile] showed an IC50 of 0.382 nM. Work on `C[C@@H](c1ccc(Cl)cn1)n1c(N2CC[C@@H](F)[C@H](N)C2)nc2ccccc21` [Example 216, (3R,4R)-1-(1-((S)-1-(5-chloropyridin-2-yl)ethyl)-1H-benzo[d]imidazol-2-yl)-4-fluoropiperidin-3-amine hydrochloride] yielded an IC50 of 11.4 nM. For `CN[C@H]1CCCN(c2nc3cc(C(F)(F)F)ccc3n2Cc2ccc(C#N)cn2)C1` [Example 140, 6-((2-((3S)-3-(methylamino)-1-piperidinyl)-5-(trifluoromethyl)-1H-benzimidazol-1-yl)methyl)-3-pyridinecarbonitrile], the IC50 was 132 nM. `N#Cc1ccc(Cn2c(N3CC[C@H](F)[C@@H](N)C3)nc3ccccc32)cc1` [Example 170, 4-((2-((3S,4S)-3-amino-4-fluoropiperidin-1-yl)-1H-benzo[d]imidazol-1-yl)methyl)benzonitrile] showed an IC50 of 25.9 nM. `N[C@@H]1CCCN(c2nc3ccccc3n2Cc2ccc(C(F)(F)F)cc2)C1` [Example 375, (R)-1-(1-(4-(trifluoromethyl)benzyl)-1H-benzo[d]imidazol-2-yl)piperidin-3-amine] was tested, and the IC50 was 2770 nM. Compound `N#Cc1ccc(Cn2c(N3CC[C@H](F)[C@H](N)C3)nc3ccc(C(F)(F)F)cc32)nc1` [Example 106, 6-((2-((3R,4S)-3-amino-4-fluoro-1-piperidinyl)-6-(trifluoromethyl)-1H-benzimidazol-1-yl)methyl)-3-pyridinecarbonitrile] has an IC50 of 0.45 nM. With `N#Cc1ccc(Cn2c(N3CCC(F)(F)[C@H](N)C3)nc3c(F)cc(F)cc32)nc1` [Example 87, (R)-6-((2-(3-amino-4,4-difluoropiperidin-1-yl)-4,6-difluoro-1H-benzo[d]imidazol-1-yl)methyl)nicotinonitrile hydrochloride] the IC50 was 0.931 nM. Compound `N[C@@H]1CCCN(c2nc3ccccc3n2Cc2ccc(Cl)cc2)C1` [Example 377, (R)-1-(1-(4-chlorobenzyl)-1H-benzo[d]imidazol-2-yl)piperidin-3-amine] has an IC50 of 1650 nM. `N[C@@H]1CN(c2nc3cc(F)c(F)cc3n2[C@@H]2CCN(C3CCOCC3)C2=O)CC[C@H]1F` [Example 550, (R)-3-(2-((3R,4R)-3-amino-4-fluoropiperidin-1-yl)-5,6-difluoro-1H-benzo[d]imidazol-1-yl)-1-(tetrahydro-2H-pyran-4-yl)pyrrolidin-2-one] gave an IC50 greater than 3750 nM. With `N#Cc1ccc(Cn2c(N3CCC[C@H](N)C3)nc3ccc(Cl)cc32)cc1` [Example 421, (S)-4-((2-(3-aminopiperidin-1-yl)-6-chloro-1H-benzo[d]imidazol-1-yl)methyl)benzonitrile] the IC50 was 0.54 nM. `N[C@@H]1CN(c2nc3cc(F)c(F)cc3n2CC(=O)N2CCC3CCCCC3C2)CC[C@H]1F` (mixture of isomers) [Example 523, 2-(2-((3R,4R)-3-amino-4-fluoropiperidin-1-yl)-5,6-difluoro-1H-benzo[d]imidazol-1-yl)-1-(octahydroisoquinolin-2(1H)-yl)ethan-1-one] was tested, and the IC50 was 988 nM. `N[C@@H]1CN(c2nc3cc(F)c(F)cc3n2CC(=O)N2CCN3C(=O)NCC3C2)CC[C@H]1F` (stereo partly drawn) [Example 642, 7-(2-(2-((3R,4R)-3-amino-4-fluoropiperidin-1-yl)-5,6-difluoro-1H-benzo[d]imidazol-1-yl)acetyl)hexahydroimidazo [1,5-a]pyrazin-3(2H)-one] gave an IC50 of 1650 nM. Compound `CS(=O)(=O)c1ccc(Cn2c(N3CCC[C@@H](N)C3)nc3ccccc32)cc1` [Example 370, (R)-1-(1-(4-(methylsulfonyl)benzyl)-1H-benzo[d]imidazol-2-yl)piperidin-3-amine] has an IC50 greater than 50000 nM. Compound `Cc1ccc2c(c1)nc(N1CC[C@@H](F)[C@H](N)C1)n2Cc1ccc(C#N)cn1` [Example 110, 6-((2-((3R,4R)-3-amino-4-fluoro-1-piperidinyl)-5-methyl-1H-benzimidazol-1-yl)methyl)-3-pyridinecarbonitrile] has an IC50 of 1.23 nM. Compound `N#Cc1ccc(Cn2c(N3C[C@@H]4NCCO[C@@H]4C3)nc3ccccc32)nc1` [Example 99, 6-((2-((4aS,7aR)-hexahydropyrrolo[3,4-b][1,4]oxazin-6(2H)-yl)-1H-benzo[d]imidazol-1-yl)methyl)nicotinonitrile hydrochloride] has an IC50 greater than 3750 nM. `N#Cc1ccc(Cn2c(N3CC[C@@H](F)[C@H](N)C3)nc3cc(OC(F)(F)F)ccc32)nc1` [Example 20, 6-((2-((3R,4R)-3-amino-4-fluoropiperidin-1-yl)-5-(trifluoromethoxy)-1H-benzo[d]imidazol-1-yl)methyl)nicotinonitrile] showed an IC50 of 1.92 nM. For `C[C@@H](c1ccc(C#N)cn1)n1c(N2CC[C@@H](F)[C@H](N)C2)nc2cc(C#N)ccc21` [Example 226, 2-((3R,4R)-3-amino-4-fluoropiperidin-1-yl)-1-((S)-1-(5-cyanopyridin-2-yl)ethyl)-1H-benzo[d]imidazole-5-carbonitrile hydrochloride], the IC50 was 13.7 nM. `C[C@H](c1ccc(Cl)cn1)n1c(N2CC[C@@H](F)[C@H](N)C2)nc2cc(Cl)ccc21` [Example 219, (3R,4R)-1-(5-chloro-1-((R)-1-(5-chloropyridin-2-yl)ethyl)-1H-benzo[d]imidazol-2-yl)-4-fluoropiperidin-3-amine hydrochloride] was tested, and the IC50 was 15.9 nM. Work on `CC[C@@H](c1ccc(C#N)cn1)n1c(N2CCC[C@H](N)C2)nc2ccccc21` [Example 300, 6-((S)-1-(2-((S)-3-aminopiperidin-1-yl)-1H-benzo[d]imidazol-1-yl)propyl)nicotinonitrile hydrochloride] yielded an IC50 of 406 nM. `C[C@@H](c1ccc(C#N)cc1)n1c(N2CC[C@H](F)[C@H](N)C2)nc2ccccc21` [Example 318, 4-((S)-1-(2-((3R,4S)-3-amino-4-fluoropiperidin-1-yl)-1H-benzo[d]imidazol-1-yl)ethyl)benzonitrile hydrochloride] was tested, and the IC50 was 37.7 nM. `N#Cc1ccc(Cn2c(N3C[C@H]4CC[C@H](N)[C@H]4C3)nc3ccccc32)nc1` [Example 78, 6-((2-((3aR,4S,6aS)-4-aminohexahydrocyclopenta[c]pyrrol-2(1H)-yl)-1H-benzo[d]imidazol-1-yl)methyl)nicotinonitrile hydrochloride] showed an IC50 of 70.7 nM. Work on `C[C@H](c1ncc(Cl)cn1)n1c(N2CC[C@@H](F)[C@H](N)C2)nc2cc(F)c(F)cc21` [Example 498, (3R,4R)-1-(1-((R)-1-(5-chloropyrimidin-2-yl)ethyl)-5,6-difluoro-1H-benzo[d]imidazol-2-yl)-4-fluoropiperidin-3-amine] yielded an IC50 of 1.88 nM.

From patent publication US11332459B2 (TEIJIN PHARMA LIMITED, priority 2017, dated 2022)
